{"source": "patent US20120046327A1", "about": "“METHOD FOR INHIBITING THE INDUCTION AND FORMATION OF OSTEOCLASTS” (OSAKA UNIVERSITY, priority 2005, published 2012)", "key": {"[1]": {"system": "RANKL (Receptor Activator of NK-κB Ligand) in human osteoblasts", "assay": "sRANKL expression increased by AngII in human osteoblasts", "type": "cell-based", "conditions": "two-day cultivation", "description": "Purpose: Using human osteoblasts, expression of RANKL (Receptor Activator of NK-κB Ligand) which increases with angiotensin 2 (AngII) was measured. Then, inhibitory effect of olmesartan doxomil was examined.\nMethods: Human osteoblasts (Clonetics Corp., Palo Alto, Calif.) were cultured in DMEM medium under conditions of 10% FCS, 5% CO2 and 37° C. AngII (1 μM) (Sigma) was added to the culture. After two-day cultivation, sRANKL (soluble Receptor Activator of NK-κB Ligand) contained in the culture supernatant was examined by […] (Biomedica). Further, effect produced by simultaneous administration of olmesartan (1 μM) or angiotensin type II receptor antagonist PD (123319) (chemical name: (S)-1-(4-[dimethylamino]-3-methylphenyl)methyl-5-(diphenylacetyl)-4,5,6,7-tetrahydro-1H-imidazo[4,5-c]pyridine-6-carboxylate) (1 μM) (Sigma-aldrich) was also examined."}, "[2]": {"assay": "Bone density, bone length and weight in ovariectomized spontaneously hypertensive rats", "type": "in vivo, spontaneously hypertensive rats (SHR)", "conditions": "one month after ovariectomy, ovariectomy group 0.1438±0.003445, non-treatment 0.1685±0.002684", "description": "(§1) Purpose: Using spontaneously hypertensive rats, increase in TRAP (tartarate-resistant acid phosphatase) activity in the thigh bone and decrease in the bone density after ovariectomy were measured. Then, inhibitory effects of olmesartan medoxomil against TRAP activity increase and bone density decrease were examined. TRAP is a marker enzyme for osteoclasts, and TRAP activity increases when osteoclasts are activated. When osteoclasts are activated, bone is resorbed and thus bone density is decreased.\n(§2) Methods: The ovary was removed from 8-week-old female spontaneously hypertensive rats (SHR) (Charles River). After one month observation, the thigh bone was removed, followed by measurement of TRAP activity in the bone (Walter K., et al., Method of Enzymatic Analysis, Academic Press, New York & London: 1974; 856-870) and simultaneous measurement of bone density (Venken K., et al., Bone 2005; 36: 663-670). Further, from immediately after the ovariectomy, olmesartan was administered subcutaneously at two different concentrations of 0.5 mg/kg/day and 1 mg/kg/day using an osmotic pressure pump (Alzet model 2004; Alza Corp).\nAlthough administration of olmesartan brought no changes in the length and weight of the bone, concentration dependent decrease was recognized in TRAP activity in the thigh bone (Ovariectomy+ARB0.5 group: 71.7±8.7 U/L; Ovariectomy+ARB 1 group: 66.1±3.6 U/L). […]"}, "[3]": {"system": "osteoclasts (TRAP positive multinucleated cells) in domestic rabbit bone marrow culture system", "assay": "Osteoclast formation induced by active vitamin D3 in domestic rabbit bone marrow culture (TRAP staining)", "type": "cell-based, domestic rabbit (New Zealand White Rabbit)", "description": "Purpose: Using a domestic rabbit bone marrow culture system, the number of osteoclasts which were differentiation-induced by active vitamin D3 was measured. Then, inhibitory effect of olmesartan medoxomil was examined.\nMethods: A three-day-old domestic rabbit (New Zealand White Rabbit) was sacrificed, followed by removal of the thigh bone and the tibia. After collection of the bone marrow, the leukocyte (granulocyte-monocyte) fraction was isolated and cultured under conditions of α-MEM, 10% FBS, 5% CO2, 37° C. 24-well culture plates were used for the culture. The cell count was adjusted to 5×10^4 cells/well. Active vitamin D3 (10^−8M) was added to the culture system. On day 3, 7 and 10 of the culture, cells were fixed with 4% paraformaldehyde and stained with tartarate-resistant acid phosphatase (TRAP staining) under acidic conditions (pH 5.0). The number of multinucleated cells stained with red (osteoclasts) was measured. Similar measurement was performed with addition of olmesartan at concentrations of 10^−8, 10^−7 and 10^−6M. With respect to TRAP positive cells (generally, containing 1 to 100 nuclei in one cell), they were divided into three groups depending on the degree of fusion: small cells (containing 1 to 2 nuclei), medium cells (containing 3 to 9 nuclei) and large cells (containing 10 or more nuclei)."}, "[4]": {"system": "TRAP (tartarate-resistant acid phosphatase) activity in the thigh bone", "assay": "TRAP activity in the thigh bone of ovariectomized spontaneously hypertensive rats", "type": "in vivo, spontaneously hypertensive rats (SHR)", "conditions": "osmotic pump, one month after ovariectomy, ovariectomy group 76.9±9.9, non-treatment 59.6±1.0", "description": "as §1, §2"}, "[5]": {"assay": "Blood pressure and heart rate in ovariectomized spontaneously hypertensive rats (Table A)", "type": "in vivo, spontaneously hypertensive rats (SHR)", "conditions": "average value; for Blood Pressure (diastolic): ovariectomy group 94.6667; for Blood Pressure (average): ovariectomy group 107; for Blood Pressure (systolic): ovariectomy group 131.667", "description": "as §2\nAlthough administration of olmesartan brought no changes in the length and weight of the bone, concentration dependent decrease was recognized in TRAP activity in the thigh bone (Ovariectomy+ARB0.5 group: 71.7±8.7 U/L; Ovariectomy+ARB 1 group: 66.1±3.6 U/L). Concentration dependent decrease in blood pressure was also recognized as a result of administration of olmesartan (Table A)."}, "[6]": {"conditions": "AngII 1 μM plus test substance 1 μM added simultaneously, AngII group 1.045±0.129, control 0.133±0.0271"}, "[7]": {"conditions": "Ovariectomy + 1 mg/kg/day (n = 3)"}}}
{"compound": "AngII: angiotensin 2 (AngII) (Sigma), added at 1 μM to human osteoblast culture; increases RANKL expression (DRVYIHPF; Angiotensin-2; UniProt P01019 25-32, looked up)", "values": [{"measurement": "sRANKL in culture supernatant", "setting": "[1]; AngII 1 μM alone, non-addition control 0.133±0.0271", "result": "1.045 ± 0.129", "unit": "pM"}]}
{"compound": "Cc1cc(Cn2cnc3c2C[C@@H](C(=O)O)N(C(=O)C(c2ccccc2)c2ccccc2)C3)ccc1N(C)C", "note": "[PD (123319), (S)-1-(4-[dimethylamino]-3-methylphenyl)methyl-5-(diphenylacetyl)-4,5,6,7-tetrahydro-1H-imidazo[4,5-c]pyridine-6-carboxylate]", "values": [{"measurement": "sRANKL in culture supernatant", "setting": "[1]; [6]", "result": "0.747 ± 0.0855", "unit": "pM"}]}
{"compound": "CCCc1nc(C(C)(C)O)c(C(=O)O)n1Cc1ccc(-c2ccccc2-c2nnn[nH]2)cc1", "note": "[olmesartan, 4-(1-hydroxy-1-methylethyl)-2-propyl-1-[4-[2-(tetrazole-5-yl)phenyl]phenyl]methylimidazole-5-carboxylic acid]", "values": [{"measurement": "sRANKL in culture supernatant", "setting": "[1]; [6]", "result": "0.0442 ± 0.0328", "unit": "pM"}, {"measurement": "bone density (dual-energy X-ray absorptiometry)", "setting": "[2]; 0.5 mg/kg/day subcutaneously", "result": "0.1527±0.003454", "unit": "g/cm^2"}, {"measurement": "bone density (dual-energy X-ray absorptiometry)", "setting": "[2]; 1 mg/kg/day subcutaneously", "result": "0.1539±0.004365", "unit": "g/cm^2"}, {"measurement": "growth of coexisting mesenchymal cells", "setting": "[3]; any of the groups (10^−8, 10^−7, 10^−6 M)", "result": "no remarkable change"}, {"measurement": "TRAP positive cells, average cell count, medium cells (containing 3 to 9 nuclei)", "setting": "[3]; day 10, olmesartan 10^−6 M, active vitamin D3 10^−8M, control 68.6", "result": 50.2}, {"measurement": "TRAP positive cells, average cell count, large cells (containing 10 or more nuclei)", "setting": "[3]; day 10, olmesartan 10^−6 M, active vitamin D3 10^−8M, control 80.6", "result": 23.0}, {"measurement": "TRAP positive cells, average cell count, small cells (containing 1 to 2 nuclei)", "setting": "[3]; day 10, olmesartan 10^−6 M, active vitamin D3 10^−8M, control 101.6", "result": 192.8}, {"measurement": "fusion of mononuclear cells", "setting": "[3]; olmesartan 10^−6 M, day 3, compared to control group", "result": "significantly reduced"}, {"measurement": "change in TRAP positive cell count compared to the control group", "setting": "[3]; olmesartan 10^−6 M, day 10", "result": "a significant reduction"}, {"measurement": "change in TRAP positive cell count compared to the control group", "setting": "[3]; olmesartan 10^−7 M, day 10", "result": "a reduction in TRAP positive cell count"}, {"measurement": "change in TRAP positive cell count compared to the control group", "setting": "[3]; olmesartan 10^−8 M", "result": "no remarkable change"}, {"measurement": "osteoclasts contributing to bone resorption (medium and large cells)", "setting": "[3]; olmesartan addition groups, control group 149.2, p<0.05", "result": 73.2}, {"measurement": "total number of TRAP positive, multinucleated cells", "setting": "[3]; olmesartan addition groups, control group 250.8, no statistically significant difference", "result": 265.0}, {"measurement": "TRAP activity in the thigh bone", "setting": "[4]; 0.5 mg/kg/day subcutaneously", "result": "71.7±8.7", "unit": "U/L"}, {"measurement": "TRAP activity in the thigh bone", "setting": "[4]; 1 mg/kg/day subcutaneously", "result": "66.1±3.6", "unit": "U/L"}, {"measurement": "Blood Pressure (diastolic)", "setting": "[5]; Ovariectomy + 0.5 mg/kg/day", "result": 68.3333}, {"measurement": "Blood Pressure (average)", "setting": "[5]; Ovariectomy + 0.5 mg/kg/day", "result": 81.3333}, {"measurement": "Blood Pressure (systolic)", "setting": "[5]; Ovariectomy + 0.5 mg/kg/day", "result": 107}, {"measurement": "Blood Pressure (diastolic)", "setting": "[5]; [7]", "result": 45.8}, {"measurement": "Blood Pressure (average)", "setting": "[5]; [7]", "result": 56.25}, {"measurement": "Blood Pressure (systolic)", "setting": "[5]; [7]", "result": 70.8}]}
